According to patent US20250127716A1, “INHALED IMATINIB FOR TREATMENT OF PULMONARY HYPERTENSION” (JUSTUS-LIEBIG-UNIVERSITAET GIESSEN, priority 2022, published 2025):
“Also recorded” adds a separate entry of the source. Where a name gives a salt, the structure may show the parent alone.

Key:
[1] = Formulation of stable concentrated imatinib solutions in different solvents (Examples 1-4); settings: room temperature, one hour
[2] = In vitro nebulization feasibility, Medspray wet aerosol inhaler single nozzle unit (Example 5); assay type: physicochemical; settings: Medspray nozzle pore size 1.9 μm
Procedure: In an in vitro nebulization study, the feasibility to nebulize different imatinib mesylate solutions by the Medspray™ wet aerosol inhaler was evaluated. A 1 ml syringe was filled with the formulation to be tested, a single nozzle unit of Medspray™ wet aerosol inhaler was then fixed on the syringe by a luer adapter. The nozzle pore size was 1.9 μm. The aerosol was produced by pressing the piston of the syringe manually, thereby forcing the solution through the nozzle pores. […] When using ethanol 10% (v/v) or glycerol 1% (v/v), solutions with a concentration of 240 mg/ml were nebulizable; a mixture of ethanol 10% (v/v) and glycerol 1% (v/v) further increased the maximum imatinib concentration of the solution to 250 mg/ml capable of being nebulized.

[3] = tested on: PAH-patients; settings: oral, cited from earlier work
[4] = cited from earlier work
[5] = tested on: PAH patients; settings: oral; phase II, 59 patients; cited from earlier work
[6] = 24-week trial, 202 PAH-patients

Cc1ccc(NC(=O)c2ccc(CN3CCN(C)CC3)cc2)cc1Nc1nccc(-c2cccnc2)n1 [Imatinib mesylate]
stability of resulting solutions ([1]; higher ionic strength solvents of Example 3): not stable | concentration of stable imatinib mesylate solution that could be formulated ([1]; higher ionic strength solvents: NaCl 0.9%, HCl/NaOH, citrate, HEPES, trometamol, PBS buffer): < 50000 µg/mL | concentration of stable imatinib mesylate solution that could be formulated ([1]; low ionic strength solvents of Example 4 (a. dest, ethanol, urea, glycerol, mannitol, glycols, ectoin)): up to 500 mg/ml | maximum concentration capable of being nebulized ([2]; solvent a. dest): 210 mg/mL | maximum imatinib concentration capable of being nebulized ([2]; solvent ethanol 10% (v/v) and glycerol 1% (v/v)): 250 mg/mL | concentration nebulizable ([2]; solvent ethanol 10% (v/v)): 240000 µg/mL | concentration nebulizable ([2]; solvent glycerol 1% (v/v)): 240000 µg/mL | 6-minute walk distance (primary outcome) [3, 6]: significantly improving; also recorded: significantly improved | pulmonary vascular resistance [3, 6]: significantly improved | inter-subject variation in pharmacokinetics ([4]; in vivo): high | bioavailability ([4]; oral): almost complete | change from baseline in the 6-minute-walk distance (primary endpoint) [5]: not meeting the primary endpoint | pulmonary hemodynamics (secondary endpoint) [5]: significantly improved

Cc1ccc(NC(=O)c2ccc(CN3CCN(C)CC3)cc2)cc1Nc1nccc(-c2cccnc2)n1 [Imatinib free base, 4-[(4-methylpiperazin-1-yl)methyl]-N-(4-methyl-3-{[4-(pyridin-3-yl)pyrimidin-2-yl]amino}phenyl)benzamide]
imatinib concentration of stable solution that could be formulated ([1]; a. dest, NaCl 0.9%, citrate buffer 5%, urea 5%, ethanol 10%, glycerol 1%): ≤ 5 mg/mL

Cc1ccc(NC(=O)c2ccc(CN3CCN(C)CC3)cc2)cc1Nc1nccc(-c2cccnc2)n1 [imatinib, 4-[(4-methylpiperazin-1-yl)methyl]-N-(4-methyl-3-{[4-(pyridin-3-yl)pyrimidin-2-yl]amino}phenyl)benzamide]
adverse events, side effects and discontinuation ([3]; study and open-label extension phase): severe adverse events, significant side effects, and a high discontinuation rate
